Results as given in paper PMC9011347, “Small-Molecule Inhibitors Targeting Lipolysis in Human Adipocytes” (Journal of the American Chemical Society, 2022).
Like-named read-outs stand apart in the source and are kept apart here.

What was measured:
[1] = tested on: human Simpson–Golabi–Behmel syndrome (SGBS) adipocytes; assay: Lipolysis in SGBS adipocytes (FA, glycerol release, DAG content); format: cell-based; settings: for IC50: Homo sapiens, 1 h preincubation, isoproterenol 1 μM
Description: (§1) Figure 3 NG-497 inhibits lipolysis in human SGBS and primary human adipocytes. SGBS adipocytes were preincubated with NG-497 for 1 h at the indicated concentrations. Subsequently, lipolysis was stimulated with isoproterenol (1 μM) and (a) FA and (b) glycerol release was determined after 1 h using commercial kits. (c) Dose-dependent inhibition of isoproterenol-stimulated FA release from SGBS adipocytes by the HSL inhibitor 76-068 (HSLi). […] (e) DAG accumulation in SGBS adipocytes was analyzed by thin-layer chromatography (TLC) following 1 h incubation with HSLi (25 μM), NG-497 (40 μM), and a combination of both inhibitors. (f) Primary human adipocytes were prelabeled with 1 μCi [9,10-^3H] oleic acid per well for 12 h. Subsequently, basal and Forskolin (5 μM)-stimulated release of radioactivity was determined via liquid scintillation over a period of 2 h in the presence or absence of NG-497 (40 μM). FA release was calculated based on FA concentrations in conditioned media after 2 h as determined using a commercial kit. (g) Primary human adipocytes were preincubated in the presence or absence of NG-497 (40 μM) for 1 h. Subsequently, the medium was changed and FA release was monitored over a period of 3 h under the indicated conditions. Data are presented as mean ± SD. Statistical significance was determined via ANOVA followed by Bonferroni post hoc test (^#p < 0.05; ^##p < 0.01; ^###p < 0.001). TEXT PRINTED IN THE PICTURE: (a) NG-497: IC50 (μM) 1.5 ± 0.5 | (b) NG-497: IC50 (μM) 1.5 ± 0.5 | (c) HSLi: IC50 (nM) 100 ± 15 | (d) NG-497: IC50 (μM) 0.5 ± 0.1 […]
Lipidomic analysis. HepG2 cells were treated for 3 hours with 40 µM NG-497 or DMSO as control. Subsequently, cells were washed three times with PBS, harvested, and extracted with 700 µl MTBE:MeOH (10:3, v:v) for 1 hour at 4 °C on a Thermomix shaker at 1,400 rpm. 200 µl H2O were added, shaken for another 20 min, centrifuged for 10 min at 20,000 g for phase separation.
500 µl of the organic phase was transferred and evaporated under a stream of nitrogen. […] The aqueous phase was dried, the protein pellet incubated overnight with 400 µl NaOH/SDS (0.3 M/0.1%) and total protein content analyzed by the BCA protein assay (Thermo Fisher Scientific) according to the manufacturer’s instructions.
Lipid samples were separated on an Agilent 1290 Infinite II UHPLC with gradient elution over a Zorbax Extend-C18 reversed phase column (2.1 x 50 mm, 1.8µm) at 50°C. […] Samples were analyzed on an Agilent 6560 Ion Mobility Q-ToF mass spectrometer in Qtof-only mode over a scan range of 100 to 1700 m/z in negative mode and 150 to 1700 m/z in positive mode with automatic MS/MS generation. All samples were analyzed in triplicates using iterative acquisition mode to increase the number of MS/MS spectra for better annotation. […]

primary human adipocytes = assay: Lipolysis in primary human adipocytes; format: cell-based
Description: as §1, with “(f) Primary human adipocytes were prelabeled with 1 μCi [9,10-^3H] oleic acid per well for 12 h.” left out, “(g) Primary human adipocytes were preincubated in the presence or absence of NG-497 (40 μM) for 1 h.” left out, “Data are presented as mean ± SD.” left out, “0.001).” for “0.001). TEXT PRINTED IN THE PICTURE: (a) NG-497: IC50 (μM) 1.5 ± 0.5 | (b) NG-497: IC50 (μM) 1.5 ± 0.5 | (c) HSLi: IC50 (nM) 100 ± 15 | (d) NG-497: IC50 (μM) 0.5 ± 0.1”
Released free fatty acids were quantified via NEFA C kit (Fujifilm Wako Chemicals, Neuss, Germany) and release of p-nitrophenol was measured at 405 nm. […]

CCOc1ccc(-c2cc(OC)cc(C(=O)OC(C)C)n2)cc1 [NG-497]
IC50 ([1]; 1 h, read-out: IC50 of isoproterenol-stimulated FA release): 1.5 µM | IC50 ([1]; 1 h, read-out: IC50 of isoproterenol-stimulated glycerol release): 1.5 µM | DAG accumulation under combined inhibition of HSL and ATGL ([1]; NG-497 40 μM combined with HSLi 25 μM, 1 h, TLC): prevented DAG accumulation | effect on lipolysis ([1]; concentrations ≥10 μM): almost completely abolished lipolysis | activity at 40 µM (primary human adipocytes; Homo sapiens, Adipocyte, primary adipocytes, 1 h preincubation with NG-497 40 μM, within the third hour after pretreatment, read-out: lipolytic activity regained after inhibitor removal): ~40% | Forskolin-induced FA release (primary human adipocytes; primary human adipocytes, NG-497 40 μM, Forskolin 5 μM, 2 h, [9,10-3H] oleic acid label): diminished Forskolin-induced FA release to basal level
